Earlier results on one substance are cited in patent publication US10537636B2, “Treatment of cancer with therapeutic monoclonal antibody specific for a tumor associated antigen and an immune adjuvant” (Oncoquest, Inc., priority 2017, dated 2020).

The data set has as its system advanced ovarian cancer. The following applies: mono-immunotherapy following front-line chemotherapy.

oregovomab: the clinical outcome was “failed to improves clinical outcome”.
